Test results as given in patent US20260053747A1, “RECONSTITUTED HIGH-DENSITY LIPOPROTEIN NANOPARTICLES COMPRISING CHOLESTEROL” (MEPSGEN CO., LTD., priority 2023, published 2026).

Experiments:
[1] = system: LDLR mRNA expression in LN229 cells; experiment: qPCR of LDLR mRNA in LN229; format: cell-based; settings: LN229, 5 μg/mL of 24HC, 24 hours
Description: (§1) 24HC is an endogenous LXR agonist and is known to induce the expression of genes responsible for cholesterol efflux, such as ABCA1 and ABCG1, thereby inducing intracellular cholesterol efflux, and to inhibit exogenous cholesterol uptake by downregulating LDLR. Accordingly, we anticipated that treatment of GBM with 24HC-containing rHDL nanoparticles would result in a greater decrease in LDLR expression and an increase in ABCA1 expression due to the action of 24HC, compared to the treatment with 24HC alone. Therefore, U87MG and LN229 cells were treated with 24HC, 24HC-containing rHDL nanoparticles, and rHDL nanoparticles, and the changes in LDLR and ABCA1 mRNA expression were confirmed using qPCR (real-time polymerase chain reaction). U87MG and LN229 cells were seeded at 0.5×10^5 cells/well in a 6-well cell culture plate and cultured for 24 hours under the conditions described in Example 1 above. In qPCR experiments, U87MG cells were treated with 1 μg/mL of 24HC for 24 hours, and LN229 cells were treated with 5 μg/mL of 24HC for 24 hours, and changes in LDLR mRNA were confirmed. […] In the case of rHDL nanoparticles, the amount of apolipoprotein E3 in the 24HC-containing rHDL nanoparticles was quantified using a BCA assay, and the same amount of apolipoprotein E3 corresponding to the 24HC treatment concentration was calculated prior to treatment with rHDL nanoparticles.

[2] = system: iBMECs; experiment: Toxicity (cell survival rate) in iBMECs; format: cell-based, human; settings: up to 5 μg/mL, 8 hours
Method: (§2) The toxicity of 24HC-containing rHDL nanoparticles toward hBMECs, iBMECs, pericytes, and normal brain astrocytes, which constitute the BBB until the nanoparticles penetrate the BBB and reach the GBM, was evaluated. hBMECs, iBMECs, pericytes, and astrocytes were seeded into a 96-well cell culture plate. Pericytes were cultured in PM medium, astrocytes were cultured in the same culture medium as described in Example 1, and hBMEC and iBMEC cells were cultured in the same culture medium as described in Example 6. After 24 hours of incubation, the cells were treated with the nanoparticles according to the present invention at concentrations ranging from Oto 5 μg/mL, and the cell survival rate (%) was evaluated after 8 hours of incubation. […] In addition, it was confirmed that the nanoparticles are not toxic to normal brain cells other than GBM.

[3] = system: ABCA1 mRNA expression in LN229 cells; experiment: qPCR of ABCA1 mRNA in LN229; format: cell-based; settings: LN229, 5 μg/mL of 24HC, 4 hours
Description: as §1

[4] = system: LDLR mRNA expression in GBM #P1 and GBM #P2 cells; experiment: qPCR of LDLR mRNA in patient-derived GBM cells; format: cell-based; settings: GBM #P1 and GBM #P2, 2 μg/mL of 24HC, 4 hours
Method: GBM #P1 and GBM #P2 cells were treated with 24HC, 24HC-containing rHDL nanoparticles, and rHDL nanoparticles, and the changes in LDLR and ABCA1 mRNA expression were confirmed using qPCR. GBM #P1 and GBM #P2 cells were seeded at 0.5×10^5 cells/well in a 6-well cell culture plate and were cultured for 24 hours. The cells were cultured under the conditions as described in Example 12 above. GBM #P1 and GBM #P2 cells were treated with 24HC and 24HC-containing rHDL nanoparticles at a concentration of 2 μg/mL of 24HC for 4 hours. In the case of rHDL nanoparticles, the amount of apolipoprotein E3 in the 24HC-containing rHDL nanoparticles was quantified using a BCA assay, and then the same amount of apolipoprotein E3 corresponding to the 24HC treatment concentration was calculated prior to treatment with rHDL nanoparticles.

[5] = system: LDLR mRNA expression in U87MG cells; experiment: qPCR of LDLR mRNA in U87MG; format: cell-based; settings: 1 μg/mL of 24HC, 24 hours
Description: as §1

[6] = system: pericytes; experiment: Toxicity (cell survival rate) in pericytes; format: cell-based; settings: up to 5 μg/mL, 8 hours
Method: as §2

[7] = system: ABCA1 mRNA expression in U87MG cells; experiment: qPCR of ABCA1 mRNA in U87MG; format: cell-based; settings: 1 μg/mL of 24HC, 4 hours
Description: as §1

[8] = system: hBMECs; experiment: Toxicity (cell survival rate) in hBMECs; format: cell-based, human; settings: up to 5 μg/mL, 8 hours
Method: as §2

[9] = system: LN229 cells; experiment: GBM cell survival rate in LN229; format: cell-based; settings: Homo sapiens, LN-229, 0-50 μg/mL, 48 hours
Method: (§3) In order to determine whether cholesterol depletion caused by intracellular cholesterol efflux inhibits GBM cell proliferation and induces cell death, U87MG and LN229 cells were treated with rHDL nanoparticles, 24HC, and 24HC-containing rHDL nanoparticles, and the cell survival rate was evaluated. After 24 hours of incubation, the cells were treated with the nanoparticles according to the present invention at concentrations of 0-50 μg/mL, and the cell survival rate (%) was evaluated after 48 hours of incubation.

[10] = system: normal brain astrocytes; experiment: Toxicity (cell survival rate) in astrocytes; format: cell-based; settings: up to 5 μg/mL, 8 hours
Method: as §2

[11] = system: GBM #P1 cells; experiment: Cell viability in patient-derived GBM #P1; format: cell-based; settings: 0-50 μg/mL, 48 hours
Method: (§4) In order to determine whether cholesterol depletion due to intracellular cholesterol efflux inhibits GBM cell proliferation and induces cell death, GBM #P1 and GBM #P2 cells were treated with rHDL nanoparticles, 24HC, and 24HC-containing rHDL nanoparticles, and cell viability was evaluated. After 24 hours of incubation, the cells were treated with 0-50 μg/mL of the nanoparticles, and the cell viability (%) was assessed after 48 hours of incubation.

[12] = system: GBM #P2 cells; experiment: Cell viability in patient-derived GBM #P2; format: cell-based; settings: 0-50 μg/mL, 48 hours
Method: as §4

[13] = system: U87MG cells; experiment: GBM cell survival rate in U87MG; format: cell-based; settings: Homo sapiens, U-87 MG, 0-50 μg/mL, 48 hours
Method: as §3

[14] = system: ABCA1 protein in PDAC cells; settings: PDAC cells (Raimund O, Life Sci Alliance, 2022); cited from earlier work

Row | Structure (SMILES) | Level of LDLR mRNA expression compared to the control group [1] | Toxicity in iBMECs [2] | Level of ABCA1 mRNA expression compared to the control group [3] | Level of LDLR mRNA expression, lower compared to the control group [4] | Level of LDLR mRNA expression compared to the control group [5] | Toxicity in pericytes [6] | Level of ABCA1 mRNA expression compared to the control group [7] | Toxicity in hBMECs [8] | IC50 [9] | Toxicity in astrocytes [10] | IC50 [11] | IC50 [12] | IC50 [13] | Expression of the ABCA1 protein [14]
1 | CC(C)C(O)CC[C@@H](C)[C@H]1CC[C@H]2[C@@H]3CC=C4C[C@@H](O)CC[C@]4(C)[C@H]3CC[C@]12C (some centres unmarked) [Formulation 24HC, 24-hydroxycholesterol] | decreased | none of the rHDL nanoparticles, 24HC, or 24HC-containing rHDL nanoparticles exhibited toxicity | increased | significantly reduced | decreased | none of the rHDL nanoparticles, 24HC, or 24HC-containing rHDL nanoparticles exhibited toxicity | increased | none of the rHDL nanoparticles, 24HC, or 24HC-containing rHDL nanoparticles exhibited toxicity | 12.8 mg/L | none of the rHDL nanoparticles, 24HC, or 24HC-containing rHDL nanoparticles exhibited toxicity | 40.2 mg/L | 13.8 mg/L | 6.7 mg/L | 
2 | O=S(=O)(c1ccccc1)N(CC(F)(F)F)c1ccc(C(O)(C(F)(F)F)C(F)(F)F)cc1 [Formulation T0901317] |  |  |  |  |  |  |  |  |  |  |  |  |  | increased the expression of the ABCA1 protein
